Test results published in patent US11401264B2, “Heterocyclic compound” (Orizuru Therapeutics, Inc., priority 2018, dated 2022).

Tested on: cardiomyocytes from double knock-in human iPS cell lines (mCherry at TNNI3 locus)
Experiment: Experimental Example 1: mCherry (TNNI3 reporter) immunostaining measured by high contents screening
Format: cell-based
Design: key to average fluorescent intensity (at 30 μM): —: The symbol in Table 2 means that the average fluorescent intensity cannot be evaluated due to cell decrease
Conditions: read on 8th day, Alexa 647 anti-mCherry, control well 797; for average fluorescent intensity (at 1 μM): test compound 1 μM added on 3rd and 6th culture days; for average fluorescent intensity (at 30 μM): test compound 30 μM added on 3rd and 6th culture days
Protocol: For detection of cardiomyocyte maturation, double knock-in human iPS cell lines, in which reporter protein sequences, EmGFP (Sequence Number 1) and mCherry (Sequence Number 2) were inserted into gene loci for TNNI1 and TNNI3, respectively, were prepared (the human iPS cells were prepared from episomal vector (loaded gene; OCT3/4, KLF4, SOX2, L-MYC, LIN28, mouse p53DD) using PBMC (LP_167, Sample ID: 20130318) purchased from CTL (reference literature; Okita K, et al. Stem Cells. 2012 Nov. 29. doi: 10.1002/stem.1293)).
The maintenance culture of the above-mentioned reporter iPS cell lines was carried out by a conventional method (Okita K, et al. Stem Cells. 2012 Nov. 29. doi: 10.1002/stem.1293).
For differentiation induction into cardiomyocytes, the reporter iPS cell lines were treated with 0.5×TrypLE select (Life Technologies, diluted in 1/2 with 0.5 mM EDTA/PBS) for 4 to 5 minutes, and the cells were exfoliated using a cell scraper (IWAKI), and then dissociated into the single cell by pipetting. The medium was removed by centrifugation (1,000 rpm, 5 min), and the obtained cells were seeded on a bioreactor (ABLE) by 1×10^7 cells per 30 mL of the bioreactor, and then cultured in a medium prepared by adding 1% L-glutamine, transferrin 150 μg/mL, ascorbic acid 50 μg/mL (Sigma), monothioglycerol 4×10^−4 M, 10 μM Rock inhibitor (Y-27632), 2 ng/mL BMP4 (R&D) and 0.5% Matrigel (Growth Factor Reduced) to a medium after removal of solution C from StemFit AK02 (AJINOMOTO AK02, 400 mL of solution A and 100 mL of B solution, total 500 mL), at 37° C., under 5% oxygen condition (55 rpm, stirred suspension culture method) to form embryoid bodies (0 day).
Next day (1st day), 9 μL (final concentration 3 ng/mL) of 10 μg/mL activin A, 15 μL (final concentration 5 ng/mL) of 10 μg/mL bFGF and […] (final concentration 10 ng/mL) of 10 μg/mL BMP4 were added to the bioreactor, and the cells were cultured at 37° C. for additional 2 days, under 5% oxygen condition.
Then (3rd day), the obtained embryoid bodies were collected in a 50 mL centrifuge tube, and then subjected to centrifugation (200 g, 1 min). The medium was removed, and the embryoid bodies were cultured in a medium prepared by adding 1% L-glutamine, transferrin 150 μg/mL, ascorbic acid 50 μg/mL (Sigma), monothioglycerol 4×10^−4 M, 10 ng/mL VEGF, 1 μM IWP-3, 0.6 μM dorsomorphin and 5.4 μM SB431542 to a medium after removal of solution C from StemFit AK02 (AJINOMOTO AK02, 400 mL of solution A and 100 mL of B solution, total 500 mL), at 37° C. for 3 days, under 5% oxygen condition (55 rpm, stirred suspension culture method).
Then (6th day), the bioreactor was left to stand to precipitate the embryoid bodies, and 80 to 90% of the medium was removed. A medium prepared by adding 1% L-glutamine, transferrin 150 μg/mL, ascorbic acid 50 μg/mL (Sigma), monothioglycerol […] and 5 ng/mL VEGF to a medium after removal of solution C from StemFit AK02 (AJINOMOTO AK02, 400 mL of solution A and 100 mL of B solution, total 500 mL) was added to the bioreactor so that the total volume became 30 mL, and the embryoid bodies were cultured for 8 days, at 37° C., under 5% oxygen condition (55 rpm, stirred suspension culture method). During the culture, the medium was replaced with a medium under the same conditions every 2 to 3 days.
14th Day after the start of the differentiation induction, the embryoid bodies were treated with 2 mg/mL collagenase type I (Sigma) for 2 hr, and then with 0.25% trypsin/EDTA (Invitrogen) for 10 min. 50% FBS/IMDM (Thermo Fisher Science) was added thereto, and the embryoid bodies were dissociated into the single cell by pipetting, and then subjected to centrifugation (1,000 rpm, 5 minutes). […]

| SMILES | average fluorescent intensity (at 1 μM) | average fluorescent intensity (at 30 μM) |
| --- | --- | --- |
| O=C1c2ccc(N3CCCCC3)cc2CN1c1ccc2[nH]c(C3CCNCC3)nc2c1 [Example 39, 5-(piperidin-1-yl)-2-(2-(piperidin-4-yl)-1H-benzimidazol-5-yl)isoindolin-1-one] | 1042 | 1026 |
| O=C1c2ccc(N3CCCCC3)cc2CN1c1ccc2[nH]c(-c3ccno3)nc2c1 [Example 40, 2-(2-(1,2-oxazol-5-yl)-1H-benzimidazol-5-yl)-5-(piperidin-1-yl)isoindolin-1-one] | 1089 | 1327 |
| O=C1c2ccc(N3CCCCC3)cc2CN1c1ccc2[nH]c(-c3cccs3)nc2c1 [Example 41, 5-(piperidin-1-yl)-2-(2-(2-thienyl)-1H-benzimidazol-5-yl)isoindolin-1-one] | 1107 | 1571 |
| CC(C)(C)OC(=O)N1CCC(c2nc3cc(N4Cc5cc(N6CCCCC6)ccc5C4=O)ccc3[nH]2)CC1 [Example 42, tert-butyl 4-(5-(1-oxo-5-(piperidin-1-yl)-1,3-dihydro-2H-isoindol-2-yl)-1H-benzimidazol-2-yl)piperidine-1-carboxylate] | 980 | 1041 |
| O=C1c2ccc(N3CCCCC3)cc2CN1c1ccc2[nH]c(C3CCOCC3)nc2c1 [Example 43, 5-(piperidin-1-yl)-2-(2-(tetrahydro-2H-pyran-4-yl)-1H-benzimidazol-5-yl)isoindolin-1-one] | 1087 | 1153 |
| O=C1c2ccc(N3CCCCC3)cc2CN1c1ccc2[nH]c(C3CCCCC3)nc2c1 [Example 44, 2-(2-cyclohexyl-1H-benzimidazol-5-yl)-5-(piperidin-1-yl)isoindolin-1-one] | 1071 | 1141 |
| O=C1c2ccc(N3CCCCC3)cc2CN1c1ccc2[nH]c(-c3ccccn3)nc2c1 [Example 47, 5-(piperidin-1-yl)-2-(2-(pyridin-2-yl)-1H-benzimidazol-5-yl)isoindolin-1-one] | 1115 | 1348 |
| CC(C)Oc1ccc(-c2nc3cc(N4Cc5cc(N6CCCCC6)ccc5C4=O)ccc3[nH]2)cc1 [Example 48, 2-(2-(4-isopropoxyphenyl)-1H-benzimidazol-5-yl)-5-(piperidin-1-yl)isoindolin-1-one] | 1182 | 1408 |
| CCCNC(=O)COc1ccc(-c2nc3cc(N4Cc5cc(N6CCOCC6)ccc5C4=O)ccc3[nH]2)cc1 [Example 49, 2-(4-(5-(5-(morpholin-4-yl)-1-oxo-1,3-dihydro-2H-isoindol-2-yl)-1H-benzimidazol-2-yl)phenoxy)-N-propylacetannide] | 1382 | 890 |
| COC(=O)COc1ccc(-c2nc3cc(N4Cc5cc(N6CCOCC6)ccc5C4=O)ccc3[nH]2)cc1 [Example 50, methyl (4-(5-(5-(morpholin-4-yl)-1-oxo-1,3-dihydro-2H-isoindol-2-yl)-1H-benzimidazol-2-yl)phenoxy)acetate] | 1126 | 1717 |
| O=C(O)COc1ccc(-c2nc3cc(N4Cc5cc(N6CCOCC6)ccc5C4=O)ccc3[nH]2)cc1 [Example 51, (4-(5-(5-(morpholin-4-yl)-1-oxo-1,3-dihydro-2H-isoindol-2-yl)-1H-benzimidazol-2-yl)phenoxy)acetic acid] | 963 | 1279 |
| O=C(COc1ccc(-c2nc3cc(N4Cc5cc(N6CCOCC6)ccc5C4=O)ccc3[nH]2)cc1)OCc1ccccc1 [Example 52, benzyl (4-(5-(5-(morpholin-4-yl)-1-oxo-1,3-dihydro-2H-isoindol-2-yl)-1H-benzimidazol-2-yl)phenoxy)acetate] | 937 | 973 |
| O=C1c2ccc(N3CCOCC3)cc2CN1c1ccc2[nH]c(-c3ccc(O)cc3)nc2c1 [Example 53, 2-(2-(4-hydroxyphenyl)-1H-benzimidazol-5-yl)-5-(morpholin-4-yl)isoindolin-1-one] | 880 | 2812 |
| CCCCCCOc1ccc(-c2nc3cc(N4Cc5cc(N6CCOCC6)ccc5C4=O)ccc3[nH]2)cc1 [Example 54, 2-(2-(4-(hexyloxy)phenyl)-1H-benzimidazol-5-yl)-5-(morpholin-4-yl)isoindolin-1-one] | 838 | — |
| O=C1c2ccc(N3CCOCC3)cc2CN1c1ccc2[nH]c(-c3ccc(OCc4ccccc4)cc3)nc2c1 [Example 55, 2-(2-(4-(benzyloxy)phenyl)-1H-benzimidazol-5-yl)-5-(morpholin-4-yl)isoindolin-1-one] | 1092 | — |
| O=C1c2ccc(N3CCOCC3)cc2CN1c1ccc2[nH]c(-c3ccc(Cl)cc3)nc2c1 [Example 56, 2-(2-(4-chlorophenyl)-1H-benzimidazol-5-yl)-5-(morpholin-4-yl)isoindolin-1-one] | 1185 | 897 |
| CCOc1ccc(Cc2nc3cc(N4Cc5cc(N6CCOCC6)ccc5C4=O)ccc3[nH]2)cc1 [Example 57, 2-(2-(4-ethoxybenzyl)-1H-benzimidazol-5-yl)-5-(morpholin-4-yl)isoindolin-1-one] | 778 | 1666 |
| CCCOc1ccc(-c2nc3cc(N4Cc5cc(N6CCOCC6)ccc5C4=O)ccc3[nH]2)cc1 [Example 58, 5-(morpholin-4-yl)-2-(2-(4-propoxyphenyl)-1H-benzimidazol-5-yl)isoindolin-1-one] | 994 | 819 |
| CCOc1ccc(-c2nc3cc(N4Cc5cc(N6CCOCC6)ccc5C4=O)ccc3n2C)cc1 [Example 59, 2-(2-(4-ethoxyphenyl)-1-methyl-1H-benzimidazol-5-yl)-5-(morpholin-4-yl)isoindolin-1-one] | 803 | 1301 |
| CCOc1ccc(-c2nc3ccc(N4Cc5cc(N6CCOCC6)ccc5C4=O)cc3n2C)cc1 [Example 60, 2-(2-(4-ethoxyphenyl)-1-methyl-1H-benzimidazol-6-yl)-5-(morpholin-4-yl)isoindolin-1-one] | 770 | 868 |
